Legend:
PP2A = biological target: T1, PP2A (Homo sapiens, UniProt P67775); experiment: PP2A phosphatase activity assay; assay type: cell-based; details: cell lysate from SKOV-3 cells, 2 h treatment
T1 construct: endogenous in cells; host or cells: SKOV-3 ovarian cancer cells (lysate supernatant, assayed with the Millipore PP2A Phosphatase Assay Kit)
Description: Ovarian cancer cells were grown to 80% confluence in 100 mm dishes and treated with LB100 as indicated and prepared as described previously (Wei, D. et al. 2013). Following treatment for 2 h, cells were washed twice with cold PBS (pH7.4) and lysed in lysis buffer (20 mmol/L imidazole-HCL, 2 mmol/L EDTA, 2 mmol/L EGTA, pH 7.0) supplemented with protease inhibitors (Roche) for 30 minutes on ice. Cell lysates were sonicated for 10 s then centrifuged at 2,000×g for 5 min. Supernatants were assayed with the PP2A Phosphatase Assay Kit (Millipore, Billerica, Mass.) according to the manufacturer's instructions. Experiments were performed in triplicate, and the data are presented as a percent mean of relative PP2A activity compared to control ±SD.

[1] = system: PEO1-STOP (PEO-1s) ovarian cancer cell line; experiment: MTT cytotoxicity assay, PEO1-STOP; assay type: cell-based, human; details: Homo sapiens, read-out: IC50, viability of ovarian cancer cell line
Description: (§1) SKOV-3 ovarian cancer cells were purchased from American Type Culture Collection (ATCC) (Manassas, Va.). SKOV-3 cells were cultured in McCoy's 5A medium (ATCC, Manassas, Va.) supplemented with 10% fetal bovine serum and 100 units/mL penicillin G sodium, 100 ug/mL streptomycin sulfate, and 292 μg/ml, L-glutamine (BioWhittaker, Wakersville, Md.). Luciferase-expressing cells were generated by infecting SKOV-3 cells with pCLNCX-luciferase retrovirus (SKOV-3-Luc) as previously reported (Wei, B. R. et al. 2009). Human OVCAR-8 ovarian cancer cells were provided by the National Cancer Institute (part of the NCI-60 collection). The PEO1, PEO4, and PEO6 ovarian cancer cell lines have previously been characterized (Langdon, S. P. et al. 1988) and were kindly provided by Dr. Ian Goldlust (National Center for Advancing Translational Sciences, Shady Grove, Md.). […]
(§2) Cell survival was measured by the 3-(4,5-dimethylthiazol-2-yl)-2,5-diphenyltetrazolium bromide (MTT, Invitrogen) assay. […] Absorbance values were determined at […] on a Spectra Max 250 spectrophotometer (Molecular Devices, Sunnyvale, Calif.). […] Cell viability was analyzed via the MTT assay as described above. […]

[2] = system: BRCA1, Wee1, Chk1, γH2AX phosphorylation in SKOV-3 tumors; experiment: Ex-vivo western blot of intraperitoneal tumors; assay type: in vivo, mouse; details: LB100 alone 1.5 mg/kg, 4 h
Description: Whole cell and homogenized tumor tissues were lysed in NP-40 lysis buffer [50 mM Tris/HCl, pH 7.4, 150 mM NaCl and 1% Nonidet P40, supplemented with Complete Protrase Inhibitor Cocktail tablets and PhosStop phosphatase inhibitors (Roche, Indianapolis, Ind.)] and prepared as previously described (Madigan, J. P. et al. 2009). Protein (40 μg) was resolved on SDS/PAGE (12% or 15% gels) and transferred onto Immobilon PVDF membrane. The membrane was then blocked for 1 hour at room temperature in 5% (w/v) non-fat milk in TBS-Tween and probed overnight with primary antibodies. […]
Five- to seven-week-old female nude athymic mice (nu/nu) were obtained from NCI (Frederick, Md.), maintained in accredited animal facilities and used as stipulated by the U.S. Public Health Service Policy on Humane Care and Use of Laboratory Animals, in accordance with institutional reviews (http://oacu.odnih.gov). […] Tumor growth was measured twice a week via bioluminescence imaging (BLI) as previously described (Bakhsheshian, J. et al. 2013). […] Relative intensity of the BLI signal for each mouse was calculated by dividing the total luminescence for each session by the total luminescence measured on day 1 of treatment. […] Toxicity of the treatment regimens was assessed by the degree of weight loss and the overall health status was continuously monitored by a veterinarian on staff. […]

[3] = system: PEO1-Missense (PEO-1m) ovarian cancer cell line; experiment: MTT cytotoxicity assay, PEO1-Missense; assay type: cell-based, human; details: Homo sapiens, read-out: IC50, viability of ovarian cancer cell line
Description: as §1, §2

[4] = system: SKOV-3 ovarian cancer cells; experiment: MTT cytotoxicity assay, SKOV-3; assay type: cell-based, human

T1 sequence (P67775 whole entry): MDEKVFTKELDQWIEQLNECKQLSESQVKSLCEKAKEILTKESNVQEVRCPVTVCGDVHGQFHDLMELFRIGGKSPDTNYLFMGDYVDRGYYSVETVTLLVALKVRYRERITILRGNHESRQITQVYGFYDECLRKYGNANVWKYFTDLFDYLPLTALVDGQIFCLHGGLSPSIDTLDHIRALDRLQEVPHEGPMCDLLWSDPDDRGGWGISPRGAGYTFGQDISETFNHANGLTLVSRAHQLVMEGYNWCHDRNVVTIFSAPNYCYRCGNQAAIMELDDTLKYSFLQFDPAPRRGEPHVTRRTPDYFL
T1 sequence (P30153 2-589 partner limits assumed): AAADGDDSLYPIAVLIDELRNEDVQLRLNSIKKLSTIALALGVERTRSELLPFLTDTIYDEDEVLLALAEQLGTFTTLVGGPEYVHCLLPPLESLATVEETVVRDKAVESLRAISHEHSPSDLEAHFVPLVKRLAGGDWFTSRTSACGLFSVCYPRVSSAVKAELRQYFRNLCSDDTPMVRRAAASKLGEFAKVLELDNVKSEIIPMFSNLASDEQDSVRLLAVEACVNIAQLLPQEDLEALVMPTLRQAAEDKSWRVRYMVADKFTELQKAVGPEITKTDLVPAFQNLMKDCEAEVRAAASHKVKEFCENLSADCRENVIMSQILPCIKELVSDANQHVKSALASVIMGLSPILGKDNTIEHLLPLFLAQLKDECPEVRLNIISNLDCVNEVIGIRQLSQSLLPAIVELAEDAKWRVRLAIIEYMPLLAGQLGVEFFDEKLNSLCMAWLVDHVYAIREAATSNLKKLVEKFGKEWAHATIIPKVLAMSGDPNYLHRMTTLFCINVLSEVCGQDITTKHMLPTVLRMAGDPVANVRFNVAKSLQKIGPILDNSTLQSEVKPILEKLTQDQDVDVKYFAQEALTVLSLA

In the case of CN1CCN(C(=O)C2C(C(=O)O)[C@H]3CC[C@@H]2O3)CC1 (stereo partly drawn) [LB100], the PP2A enzymatic function (PP2A) is reported as “concentration-dependent decrease”, the IC50 [1] is reported as 6.9 ± 1 µM and the “phosphorylation of BRCA1, Wee1, Chk1, γH2AX” value [2] is reported as “induced hyperphosphorylation”. The IC50 [3] was 6.2 ± 1.5 µM, the IC50 ([4]; Homo sapiens, SK-OV-3, SK-OV3, MTT, read-out: IC50, viability of ovarian cancer cell line) was 10.1 ± 1.6 µM and the “fold less sensitive compared to the other ovarian lines” value ([4]; SKOV-3 vs other ovarian lines) was 2 fold.
